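1) Cells in 96-well plates. 2) Compound, 48 h, 5 concentrations. 3) Linear interpolation between surrounding doses. 4) Unreached endpoint = highest concentration. Here, GI50 denotes the concentration required for 50% inhibition of growth. TGI: concentration producing complete growth inhibition.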
Tests used:
Assay in all cases: DTP human tumour cell line panel, 48 h
MDA-MB-468 breast = test system: MDA-MB-468 breast
COLO 205 colon = test system: COLO 205 colon
ACHN renal = test system: ACHN renal
SF-539 CNS = test system: SF-539 CNS
IGROV1 ovarian = test system: IGROV1 ovarian
SF-295 CNS = test system: SF-295 CNS
SK-MEL-28 melanoma = test system: SK-MEL-28 melanoma
NCI-H522 lung = test system: NCI-H522 lung
DU-145 prostate = test system: DU-145 prostate
A549 NSCLC = test system: A549 NSCLC
M14 melanoma = test system: M14 melanoma
KM12 colon = test system: KM12 colon
MCF7 breast = test system: MCF7 breast
CAKI-1 renal = test system: CAKI-1 renal
NCI-H460 lung = test system: NCI-H460 lung
OVCAR-4 ovarian = test system: OVCAR-4 ovarian
SNB-75 CNS = test system: SNB-75 CNS
SK-MEL-2 melanoma = test system: SK-MEL-2 melanoma
RXF 393 renal = test system: RXF 393 renal
BT-549 breast = test system: BT-549 breast
U251 CNS = test system: U251 CNS
K-562 leukemia = test system: K-562 leukemia
NCI-H23 lung = test system: NCI-H23 lung
MDA-MB-435 = test system: MDA-MB-435
A498 renal = test system: A498 renal
MOLT-4 leukemia = test system: MOLT-4 leukemia
OVCAR-5 ovarian = test system: OVCAR-5 ovarian
SK-OV-3 ovarian = test system: SK-OV-3 ovarian
EKVX NSCLC = test system: EKVX NSCLC
SN12C renal = test system: SN12C renal
MDA-MB-231 breast = test system: MDA-MB-231 breast
T-47D breast = test system: T-47D breast
HS 578T breast = test system: HS 578T breast
UO-31 renal = test system: UO-31 renal
SNB-19 CNS = test system: SNB-19 CNS
HOP-62 NSCLC = test system: HOP-62 NSCLC
SF-268 CNS = test system: SF-268 CNS
NCI-H226 lung = test system: NCI-H226 lung
HOP-92 NSCLC = test system: HOP-92 NSCLC
SK-MEL-5 melanoma = test system: SK-MEL-5 melanoma
PC-3 prostate = test system: PC-3 prostate
TK-10 renal = test system: TK-10 renal
UACC-62 melanoma = test system: UACC-62 melanoma
UACC-257 melanoma = test system: UACC-257 melanoma
OVCAR-8 ovarian = test system: OVCAR-8 ovarian
NCI/ADR-RES ovarian = test system: NCI/ADR-RES ovarian
MALME-3M melanoma = test system: MALME-3M melanoma

SMILES: CN1CCN(c2ccc(Nc3cc(-c4cccc(-n5ccc6cc(C7CC7)cc(F)c6c5=O)c4CO)cn(C)c3=O)nc2)CC1
- GI50 (MDA-MB-468 breast): 3.15 µM
- TGI (MDA-MB-468 breast): 17.1 µM

SMILES: Nc1ncc(-c2ccc3ncnc(Nc4ccc(F)c(Cl)c4)c3c2)cn1
- GI50 (MDA-MB-468 breast): 0.229 µM
- TGI (MDA-MB-468 breast): 0.833 µM

SMILES: NC(=O)c1c(NC(=O)c2ccccc2)sc2c1CCC(=O)C2
- GI50 (MDA-MB-468 breast): 2.46 µM
- TGI (MDA-MB-468 breast): 6.59 µM

SMILES: CCOC(=O)N[C@H]1CCc2cc(OC)c(OC)c(OC)c2-c2ccc(SC)c(=O)cc21
- GI50 (MDA-MB-468 breast): < 0.01 µM
- TGI (MDA-MB-468 breast): > 21.3 µM

SMILES: CN(C)C1CCN(C(=O)c2ccc(NC(=O)Nc3ccc(-c4nc(N5CCOCC5)c5cccn5n4)cc3)cc2)CC1
- GI50 (MDA-MB-468 breast): 0.0186 µM
- TGI (MDA-MB-468 breast): 0.0866 µM

SMILES: N#Cc1nn(-c2cc(=O)[nH]c3ccc(Cl)cc23)c(N)c1C#N
- GI50 (MDA-MB-468 breast): > 100 µM
- TGI (MDA-MB-468 breast): > 100 µM

SMILES: Cn1cc(-c2cc(N)n3nc(-c4c[nH]c5ccccc45)cc3n2)c2cccnc21
- GI50 (COLO 205 colon): 10.7 µM
- TGI (COLO 205 colon): 45.1 µM
- GI50 (ACHN renal): 3.77 µM
- TGI (ACHN renal): 21.1 µM
- GI50 (SF-539 CNS): 2.58 µM
- TGI (SF-539 CNS): 7.31 µM
- GI50 (IGROV1 ovarian): 19.1 µM
- TGI (IGROV1 ovarian): 55.9 µM
- GI50 (SF-295 CNS): 1.99 µM
- TGI (SF-295 CNS): 4.74 µM
- GI50 (SK-MEL-28 melanoma): 5.33 µM
- TGI (SK-MEL-28 melanoma): 20.2 µM
- GI50 (NCI-H522 lung): 5.54 µM
- TGI (NCI-H522 lung): 35.9 µM
- GI50 (DU-145 prostate): 5.09 µM
- TGI (DU-145 prostate): > 100 µM
- GI50 (A549 NSCLC): 4.19 µM
- TGI (A549 NSCLC): > 100 µM
- GI50 (MDA-MB-468 breast): 2.22 µM
- TGI (MDA-MB-468 breast): 6.42 µM
- GI50 (M14 melanoma): 2.63 µM
- TGI (M14 melanoma): 6.79 µM
- GI50 (KM12 colon): 3.34 µM
- TGI (KM12 colon): 14.7 µM
- GI50 (MCF7 breast): 3.3 µM
- TGI (MCF7 breast): > 100 µM
- GI50 (CAKI-1 renal): 3.85 µM
- TGI (CAKI-1 renal): 44.8 µM
- GI50 (NCI-H460 lung): 3.56 µM
- TGI (NCI-H460 lung): > 100 µM
- GI50 (OVCAR-4 ovarian): 3.42 µM
- TGI (OVCAR-4 ovarian): > 100 µM
- GI50 (SNB-75 CNS): 2.44 µM
- TGI (SNB-75 CNS): 44.2 µM
- GI50 (SK-MEL-2 melanoma): 12.5 µM
- TGI (SK-MEL-2 melanoma): 43.1 µM
- GI50 (RXF 393 renal): 2.28 µM
- TGI (RXF 393 renal): 8.2 µM
- GI50 (BT-549 breast): 11.8 µM
- TGI (BT-549 breast): 33.6 µM
- GI50 (U251 CNS): 3.34 µM
- TGI (U251 CNS): > 100 µM
- GI50 (K-562 leukemia): 2.79 µM
- TGI (K-562 leukemia): > 100 µM
- GI50 (NCI-H23 lung): 19 µM
- TGI (NCI-H23 lung): 73.6 µM
- GI50 (MDA-MB-435): 11 µM
- TGI (MDA-MB-435): 29.5 µM
- GI50 (A498 renal): 23 µM
- TGI (A498 renal): 54.8 µM
- GI50 (MOLT-4 leukemia): 3.32 µM
- TGI (MOLT-4 leukemia): > 100 µM
- GI50 (OVCAR-5 ovarian): 11 µM
- TGI (OVCAR-5 ovarian): 39.1 µM
- GI50 (SK-OV-3 ovarian): 20.6 µM
- TGI (SK-OV-3 ovarian): 69.5 µM
- GI50 (EKVX NSCLC): 15.3 µM
- TGI (EKVX NSCLC): > 100 µM
- GI50 (SN12C renal): 11.6 µM
- TGI (SN12C renal): 42.1 µM
- GI50 (MDA-MB-231 breast): 3.4 µM
- TGI (MDA-MB-231 breast): 28.8 µM
- GI50 (T-47D breast): 2.99 µM
- TGI (T-47D breast): 13.1 µM
- GI50 (HS 578T breast): 20 µM
- TGI (HS 578T breast): > 100 µM
- GI50 (UO-31 renal): 5.41 µM
- TGI (UO-31 renal): 26.6 µM
- GI50 (SNB-19 CNS): 14.8 µM
- TGI (SNB-19 CNS): 31.4 µM
- GI50 (HOP-62 NSCLC): 6.15 µM
- TGI (HOP-62 NSCLC): 59.7 µM
- GI50 (SF-268 CNS): 17.9 µM
- TGI (SF-268 CNS): 81.9 µM
- GI50 (NCI-H226 lung): 14.1 µM
- TGI (NCI-H226 lung): > 100 µM
- GI50 (HOP-92 NSCLC): 5.81 µM
- TGI (HOP-92 NSCLC): 27.8 µM
- GI50 (SK-MEL-5 melanoma): 7.04 µM
- TGI (SK-MEL-5 melanoma): 20.5 µM
- GI50 (PC-3 prostate): 3.83 µM
- TGI (PC-3 prostate): 23.6 µM
- GI50 (TK-10 renal): 17.1 µM
- TGI (TK-10 renal): 59.3 µM
- GI50 (UACC-62 melanoma): 5.71 µM
- TGI (UACC-62 melanoma): 21.7 µM
- GI50 (UACC-257 melanoma): 13.7 µM
- TGI (UACC-257 melanoma): 33.5 µM
- GI50 (OVCAR-8 ovarian): 4.63 µM
- TGI (OVCAR-8 ovarian): > 100 µM
- GI50 (NCI/ADR-RES ovarian): 4.66 µM
- TGI (NCI/ADR-RES ovarian): > 100 µM
- GI50 (MALME-3M melanoma): 3.25 µM
- TGI (MALME-3M melanoma): 17.1 µM
